Data from the kinase profiling compilation of Christmann-Franck et al. (2016).

Tests used:
Test in all cases: KINOMEscan competition binding
MYLK2 (human) = MYLK2 (human) (UniProt Q9H1R3)
INSR (human) = INSR (human) (UniProt P06213)
MAP3K4 (human) = MAP3K4 (human) (UniProt Q9Y6R4)
CAMK1 (human) = CAMK1 (human) (UniProt Q14012)
[1] = molecular target: JAK1 JH1 catalytic (human) (UniProt P23458)
KIT (human) = KIT (human) (UniProt P10721)
TTK (human) = TTK (human) (UniProt P33981)
NTRK1 (human) = NTRK1 (human) (UniProt P04629)
YES1 (human) = YES1 (human) (UniProt P07947)
PIM1 (human) = PIM1 (human) (UniProt P11309)
[2] = molecular target: ABL1 (human), P00519 [Q252H]
CLK1 (human) = CLK1 (human) (UniProt P49759)
PAK1 (human) = PAK1 (human) (UniProt Q13153)
FLT4 (human) = FLT4 (human) (UniProt P35916)
ABL1 (human) = ABL1 (human) (UniProt P00519)
EPHA7 (human) = EPHA7 (human) (UniProt Q15375)
CAMKK2 (human) = CAMKK2 (human) (UniProt Q96RR4)
CAMK2G (human) = CAMK2G (human) (UniProt Q13555)
STK17A (human) = STK17A (human) (UniProt Q9UEE5)
NEK2 (human) = NEK2 (human) (UniProt P51955)
CDK5 (human) = CDK5 (human) (UniProt Q00535)
EPHB4 (human) = EPHB4 (human) (UniProt P54760)
EPHA8 (human) = EPHA8 (human) (UniProt P29322)
STK16 (human) = STK16 (human) (UniProt O75716)
EPHA2 (human) = EPHA2 (human) (UniProt P29317)
PAK7 (human) = PAK7 (human) (UniProt Q9P286)
AURKC (human) = AURKC (human) (UniProt Q9UQB9)
LYN (human) = LYN (human) (UniProt P07948)
PAK4 (human) = PAK4 (human) (UniProt O96013)
ULK3 (human) = ULK3 (human) (UniProt Q6PHR2)
STK10 (human) = STK10 (human) (UniProt O94804)
AAK1 (human) = AAK1 (human) (UniProt Q2M2I8)
CSK (human) = CSK (human) (UniProt P41240)
EPHA4 (human) = EPHA4 (human) (UniProt P54764)
PIM2 (human) = PIM2 (human) (UniProt Q9P1W9)
PAK6 (human) = PAK6 (human) (UniProt Q9NQU5)
CSNK1G2 (human) = CSNK1G2 (human) (UniProt P78368)
PAK3 (human) = PAK3 (human) (UniProt O75914)
CAMK1G (human) = CAMK1G (human) (UniProt Q96NX5)
STK36 (human) = STK36 (human) (UniProt Q9NRP7)
PTK6 (human) = PTK6 (human) (UniProt Q13882)
RIPK2 (human) = RIPK2 (human) (UniProt O43353)

Measured: Kd

LYN (human), sequence (P07948 whole entry, looked up): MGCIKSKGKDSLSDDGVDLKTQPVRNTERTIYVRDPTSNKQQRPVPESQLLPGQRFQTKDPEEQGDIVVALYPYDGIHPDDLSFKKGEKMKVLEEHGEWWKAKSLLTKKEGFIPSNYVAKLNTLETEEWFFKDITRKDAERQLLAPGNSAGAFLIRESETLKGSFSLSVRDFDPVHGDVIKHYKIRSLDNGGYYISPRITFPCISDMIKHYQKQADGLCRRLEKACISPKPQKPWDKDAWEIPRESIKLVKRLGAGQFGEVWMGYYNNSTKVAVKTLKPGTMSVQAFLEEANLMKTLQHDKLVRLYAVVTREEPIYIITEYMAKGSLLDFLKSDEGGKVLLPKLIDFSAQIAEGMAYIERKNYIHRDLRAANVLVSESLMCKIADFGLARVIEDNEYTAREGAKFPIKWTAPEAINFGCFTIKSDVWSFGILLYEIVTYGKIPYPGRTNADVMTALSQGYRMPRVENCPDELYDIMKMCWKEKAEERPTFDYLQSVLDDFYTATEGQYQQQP
MAP3K4 (human), sequence (Q9Y6R4 whole entry, looked up): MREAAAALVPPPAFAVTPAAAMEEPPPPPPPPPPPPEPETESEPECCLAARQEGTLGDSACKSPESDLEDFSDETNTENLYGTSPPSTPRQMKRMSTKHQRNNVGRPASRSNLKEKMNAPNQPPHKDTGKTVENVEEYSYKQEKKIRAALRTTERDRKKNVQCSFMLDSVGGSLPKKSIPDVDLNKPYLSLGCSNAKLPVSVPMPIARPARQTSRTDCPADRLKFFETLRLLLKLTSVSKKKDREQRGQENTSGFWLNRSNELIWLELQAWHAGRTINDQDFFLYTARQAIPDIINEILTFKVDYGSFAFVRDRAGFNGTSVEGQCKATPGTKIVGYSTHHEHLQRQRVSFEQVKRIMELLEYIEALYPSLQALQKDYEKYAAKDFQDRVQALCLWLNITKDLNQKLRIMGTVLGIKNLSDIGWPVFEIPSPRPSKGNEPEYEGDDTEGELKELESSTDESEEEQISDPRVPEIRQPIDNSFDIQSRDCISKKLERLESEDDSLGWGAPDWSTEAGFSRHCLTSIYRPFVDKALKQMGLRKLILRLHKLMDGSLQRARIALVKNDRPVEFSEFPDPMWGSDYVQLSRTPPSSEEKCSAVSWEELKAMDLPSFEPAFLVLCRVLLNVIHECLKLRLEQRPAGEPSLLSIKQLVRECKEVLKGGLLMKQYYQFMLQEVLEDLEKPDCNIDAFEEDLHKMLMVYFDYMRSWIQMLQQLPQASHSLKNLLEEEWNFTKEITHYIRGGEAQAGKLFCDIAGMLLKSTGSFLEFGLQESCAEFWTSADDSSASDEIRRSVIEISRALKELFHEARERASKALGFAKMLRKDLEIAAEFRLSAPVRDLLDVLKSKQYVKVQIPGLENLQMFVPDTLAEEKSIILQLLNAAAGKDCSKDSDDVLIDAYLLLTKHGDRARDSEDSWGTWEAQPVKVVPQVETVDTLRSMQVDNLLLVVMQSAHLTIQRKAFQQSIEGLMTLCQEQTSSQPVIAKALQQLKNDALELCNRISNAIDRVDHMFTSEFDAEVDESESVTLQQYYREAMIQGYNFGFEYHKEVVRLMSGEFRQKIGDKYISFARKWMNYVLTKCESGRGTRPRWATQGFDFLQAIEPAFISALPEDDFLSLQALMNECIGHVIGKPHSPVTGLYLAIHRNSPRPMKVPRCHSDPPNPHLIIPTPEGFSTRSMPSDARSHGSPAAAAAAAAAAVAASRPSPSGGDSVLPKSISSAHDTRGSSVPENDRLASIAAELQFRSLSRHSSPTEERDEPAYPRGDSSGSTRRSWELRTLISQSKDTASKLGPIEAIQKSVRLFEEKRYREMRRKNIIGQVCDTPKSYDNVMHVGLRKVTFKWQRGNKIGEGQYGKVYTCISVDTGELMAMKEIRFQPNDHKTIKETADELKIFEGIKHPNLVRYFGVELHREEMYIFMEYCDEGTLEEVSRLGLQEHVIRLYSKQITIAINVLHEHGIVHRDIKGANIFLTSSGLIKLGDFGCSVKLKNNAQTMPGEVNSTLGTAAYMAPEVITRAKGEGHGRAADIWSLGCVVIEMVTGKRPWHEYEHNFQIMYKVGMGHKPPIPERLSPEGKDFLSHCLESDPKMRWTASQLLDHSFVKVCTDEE
PAK7 (human), sequence (Q9P286 whole entry, looked up): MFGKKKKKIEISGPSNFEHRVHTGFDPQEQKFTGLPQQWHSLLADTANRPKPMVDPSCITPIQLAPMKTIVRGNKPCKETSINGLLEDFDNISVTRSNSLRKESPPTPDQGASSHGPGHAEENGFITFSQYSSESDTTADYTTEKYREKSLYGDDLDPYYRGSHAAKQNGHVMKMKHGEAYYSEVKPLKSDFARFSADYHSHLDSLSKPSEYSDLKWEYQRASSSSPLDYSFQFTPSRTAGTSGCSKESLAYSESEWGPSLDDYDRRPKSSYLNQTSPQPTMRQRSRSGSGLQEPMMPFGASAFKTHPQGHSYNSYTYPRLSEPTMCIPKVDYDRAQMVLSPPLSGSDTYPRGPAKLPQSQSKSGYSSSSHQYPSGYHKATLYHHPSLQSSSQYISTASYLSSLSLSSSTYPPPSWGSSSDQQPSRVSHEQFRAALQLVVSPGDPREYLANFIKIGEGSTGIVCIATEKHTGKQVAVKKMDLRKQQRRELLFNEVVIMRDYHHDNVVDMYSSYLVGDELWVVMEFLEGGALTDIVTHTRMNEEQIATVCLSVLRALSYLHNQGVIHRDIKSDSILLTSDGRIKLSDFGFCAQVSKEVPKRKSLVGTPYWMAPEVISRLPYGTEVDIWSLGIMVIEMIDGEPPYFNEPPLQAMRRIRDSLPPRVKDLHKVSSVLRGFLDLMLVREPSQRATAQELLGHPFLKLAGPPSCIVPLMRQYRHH
EPHA8 (human), sequence (P29322 whole entry, looked up): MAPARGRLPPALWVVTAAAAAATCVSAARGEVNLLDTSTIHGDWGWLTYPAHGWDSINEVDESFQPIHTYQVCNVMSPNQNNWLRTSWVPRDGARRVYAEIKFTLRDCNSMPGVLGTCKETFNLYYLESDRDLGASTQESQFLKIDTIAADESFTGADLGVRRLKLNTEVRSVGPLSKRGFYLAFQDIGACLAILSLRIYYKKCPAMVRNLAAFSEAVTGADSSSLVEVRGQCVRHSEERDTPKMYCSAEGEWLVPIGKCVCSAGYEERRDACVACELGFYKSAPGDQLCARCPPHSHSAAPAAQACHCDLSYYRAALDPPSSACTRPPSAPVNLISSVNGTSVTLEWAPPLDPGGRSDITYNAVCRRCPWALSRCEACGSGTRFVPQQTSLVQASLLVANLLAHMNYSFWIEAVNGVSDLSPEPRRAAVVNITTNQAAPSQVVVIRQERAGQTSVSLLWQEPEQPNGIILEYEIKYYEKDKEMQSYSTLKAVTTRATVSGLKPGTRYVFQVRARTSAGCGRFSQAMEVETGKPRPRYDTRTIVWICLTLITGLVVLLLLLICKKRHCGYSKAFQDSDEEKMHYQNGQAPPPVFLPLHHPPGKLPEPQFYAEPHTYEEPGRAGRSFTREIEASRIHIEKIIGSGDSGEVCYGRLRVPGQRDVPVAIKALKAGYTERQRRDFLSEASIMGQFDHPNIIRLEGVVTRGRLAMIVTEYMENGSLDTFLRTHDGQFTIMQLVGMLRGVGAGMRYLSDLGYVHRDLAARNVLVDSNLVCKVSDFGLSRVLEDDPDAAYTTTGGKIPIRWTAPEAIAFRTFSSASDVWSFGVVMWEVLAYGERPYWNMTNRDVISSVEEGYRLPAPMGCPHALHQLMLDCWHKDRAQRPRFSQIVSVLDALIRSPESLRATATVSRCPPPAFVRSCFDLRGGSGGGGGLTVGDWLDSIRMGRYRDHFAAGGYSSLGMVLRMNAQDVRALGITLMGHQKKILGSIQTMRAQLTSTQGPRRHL
PAK4 (human), sequence (O96013 whole entry, looked up): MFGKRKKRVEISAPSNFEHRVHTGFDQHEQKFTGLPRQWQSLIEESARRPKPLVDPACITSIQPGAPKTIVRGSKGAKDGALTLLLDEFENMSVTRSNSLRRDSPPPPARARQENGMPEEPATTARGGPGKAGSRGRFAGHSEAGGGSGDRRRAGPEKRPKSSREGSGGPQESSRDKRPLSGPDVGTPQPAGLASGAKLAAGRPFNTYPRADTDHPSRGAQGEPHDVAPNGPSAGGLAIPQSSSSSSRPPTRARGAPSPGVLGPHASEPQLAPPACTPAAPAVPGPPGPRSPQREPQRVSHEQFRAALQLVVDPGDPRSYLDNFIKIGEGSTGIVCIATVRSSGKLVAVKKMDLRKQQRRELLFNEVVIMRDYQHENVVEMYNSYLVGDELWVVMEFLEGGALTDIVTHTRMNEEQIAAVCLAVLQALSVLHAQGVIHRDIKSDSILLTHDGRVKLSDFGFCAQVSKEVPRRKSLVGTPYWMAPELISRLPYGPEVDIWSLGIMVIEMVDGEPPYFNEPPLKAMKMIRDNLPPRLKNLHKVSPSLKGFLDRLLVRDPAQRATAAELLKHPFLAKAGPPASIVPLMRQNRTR
PIM1 (human), sequence (P11309 whole entry, looked up): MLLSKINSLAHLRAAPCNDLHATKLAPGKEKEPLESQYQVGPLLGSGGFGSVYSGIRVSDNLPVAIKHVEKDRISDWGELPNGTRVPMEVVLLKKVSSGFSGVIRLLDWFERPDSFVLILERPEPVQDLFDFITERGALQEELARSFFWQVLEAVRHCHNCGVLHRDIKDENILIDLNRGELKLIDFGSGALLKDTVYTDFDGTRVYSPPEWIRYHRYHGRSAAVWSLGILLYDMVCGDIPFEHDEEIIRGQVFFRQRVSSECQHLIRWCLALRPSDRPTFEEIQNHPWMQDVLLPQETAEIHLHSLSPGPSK
STK16 (human), sequence (O75716 whole entry, looked up): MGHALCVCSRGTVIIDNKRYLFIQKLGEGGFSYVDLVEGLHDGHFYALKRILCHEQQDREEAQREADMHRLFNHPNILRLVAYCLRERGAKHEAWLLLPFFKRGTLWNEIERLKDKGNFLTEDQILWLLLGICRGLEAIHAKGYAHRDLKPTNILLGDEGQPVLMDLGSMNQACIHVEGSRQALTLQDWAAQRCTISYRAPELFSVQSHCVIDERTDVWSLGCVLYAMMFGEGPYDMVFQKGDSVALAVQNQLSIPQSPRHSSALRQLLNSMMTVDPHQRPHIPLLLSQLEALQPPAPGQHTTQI

Oc1ccc(-c2nc(-c3ccc(F)cc3)c(-c3ccncc3)[nH]2)cc1
not listed: CSNK1G2 (human) | PAK3 (human) | CAMK1G (human) | STK36 (human) | PTK6 (human) | RIPK2 (human)
> 10 µM: all other assays above

O=C1c2ccccc2-c2n[nH]c3cccc1c23
0.51 µM: STK16 (human)
not listed: TTK (human) | CAMKK2 (human) | STK17A (human) | CDK5 (human) | AURKC (human) | ULK3 (human) | AAK1 (human) | PIM2 (human)
> 10 µM: all other assays above
